In patent US11339130B1 (Blade Therapeutics, Inc., priority 2016, dated 2022):

Assays:
Type in all cases: biochemical
Human Calpain 1/NS1 = molecular target: T1, Human Calpain 1/NS1 (Homo sapiens, UniProt P07384); experiment: Calpain inhibition continuous fluorescence (FRET) assay, Human Calpain 1/NS1; settings: Column A; read-out: Human Calpain 1/NS1 IC50
T1 sequence (P07384 1-714): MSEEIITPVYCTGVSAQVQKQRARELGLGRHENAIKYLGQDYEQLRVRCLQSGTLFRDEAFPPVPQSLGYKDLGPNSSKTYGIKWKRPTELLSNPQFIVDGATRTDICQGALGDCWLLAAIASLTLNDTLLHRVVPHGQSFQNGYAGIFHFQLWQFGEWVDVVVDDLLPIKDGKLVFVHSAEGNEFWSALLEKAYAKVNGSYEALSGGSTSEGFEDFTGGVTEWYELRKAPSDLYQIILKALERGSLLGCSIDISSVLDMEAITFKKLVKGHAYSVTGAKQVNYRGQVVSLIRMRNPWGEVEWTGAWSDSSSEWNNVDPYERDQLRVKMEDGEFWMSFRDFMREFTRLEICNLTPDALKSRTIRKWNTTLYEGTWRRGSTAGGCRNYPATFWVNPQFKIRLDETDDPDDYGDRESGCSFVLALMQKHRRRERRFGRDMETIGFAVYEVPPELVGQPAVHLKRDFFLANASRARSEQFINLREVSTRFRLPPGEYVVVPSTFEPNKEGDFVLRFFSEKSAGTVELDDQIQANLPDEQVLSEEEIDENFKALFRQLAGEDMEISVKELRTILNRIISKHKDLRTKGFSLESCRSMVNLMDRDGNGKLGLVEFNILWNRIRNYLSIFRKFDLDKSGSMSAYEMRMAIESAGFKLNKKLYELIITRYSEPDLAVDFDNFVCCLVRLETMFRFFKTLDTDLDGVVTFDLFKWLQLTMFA
T1 sequence (P04632 1-268 partner): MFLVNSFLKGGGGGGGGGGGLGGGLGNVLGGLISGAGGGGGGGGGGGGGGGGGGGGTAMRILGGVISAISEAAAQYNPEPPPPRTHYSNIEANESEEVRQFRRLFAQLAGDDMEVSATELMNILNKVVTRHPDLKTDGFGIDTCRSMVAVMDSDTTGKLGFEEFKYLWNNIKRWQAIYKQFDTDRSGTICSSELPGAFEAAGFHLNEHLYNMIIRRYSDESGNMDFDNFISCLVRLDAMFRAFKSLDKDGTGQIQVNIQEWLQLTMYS
Description: (§1) Calpain 1, 2, and 9 activity and inhibition thereof was assessed by means of a continuous fluorescence assay. The SensoLyte 520 Calpain substrate (Anaspec Inc) was optimized for detecting calpain activity. This substrate contains an internally quenched 5-FAM/QXL™ 520 FRET pair. Calpains 1, 2, and 9 cleave the FRET substrate into two separate fragments resulting in an increase of 5-FAM fluorescence that is proportional to calpain activity
(§2) Assays were typically setup in black 384-well plates using automated liquid handling as follows. Calpain assay base buffer typically contains 50 mM Tris, pH 7.5, 100 mM NaCl and 1 mM DTT. Inhibitors were serially diluted in DMSO and used to setup 2× mixtures with calpains in the aforementioned buffer. After incubation at ambient temperature (25C), the reaction was initiated by adding a 2× mix of the fluorescent peptide substrate and CaCl2) (required for in-situ calpain activation) in the same buffer. Reaction progress curve data were typically collected for 10 min using excitation/emission wavelengths of 490 nm/520 nm on SpectraMax i3× or the FLIPR-Tetra plate readers (Molecular Devices Inc). Reaction rates were calculated from progress curve slopes typically over 1-5 min. Dose response curves (rate vs. log inhibitor concentration) were typically fit to a 4-parameter logistic function to extract IC50 values.

Human Calpain 2/NS1 = molecular target: T2, Human Calpain 2/NS1 (Homo sapiens, UniProt P17655); experiment: Calpain inhibition continuous fluorescence (FRET) assay, Human Calpain 2/NS1; settings: Column B; read-out: Human Calpain 2/NS1 IC50
T2 sequence (P17655 1-700): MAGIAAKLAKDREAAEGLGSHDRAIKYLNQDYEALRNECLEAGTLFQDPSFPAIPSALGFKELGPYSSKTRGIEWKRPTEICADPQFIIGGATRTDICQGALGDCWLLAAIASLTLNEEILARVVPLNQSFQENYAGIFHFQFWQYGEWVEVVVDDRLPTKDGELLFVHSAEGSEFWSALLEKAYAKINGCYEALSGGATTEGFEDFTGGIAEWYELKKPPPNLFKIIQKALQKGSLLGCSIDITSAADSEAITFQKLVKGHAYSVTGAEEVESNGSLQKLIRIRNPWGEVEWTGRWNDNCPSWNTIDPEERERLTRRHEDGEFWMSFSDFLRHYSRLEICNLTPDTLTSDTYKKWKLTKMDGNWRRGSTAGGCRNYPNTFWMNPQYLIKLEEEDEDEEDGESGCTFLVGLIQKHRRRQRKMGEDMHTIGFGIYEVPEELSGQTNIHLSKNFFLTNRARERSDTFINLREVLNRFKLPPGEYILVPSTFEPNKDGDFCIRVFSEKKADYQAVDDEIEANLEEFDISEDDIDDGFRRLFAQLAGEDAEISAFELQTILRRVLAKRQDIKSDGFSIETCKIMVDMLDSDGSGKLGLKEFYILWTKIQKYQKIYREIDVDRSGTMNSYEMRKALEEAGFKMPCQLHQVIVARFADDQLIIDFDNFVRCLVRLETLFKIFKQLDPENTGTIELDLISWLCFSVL
T2 sequence (P04632 1-268 partner): T1 sequence (P04632 1-268 partner)
Description: as §1, §2

Human Calpain 9/NS1 = molecular target: T3, Human Calpain 9/NS1 (Homo sapiens, UniProt O14815); experiment: Calpain inhibition continuous fluorescence (FRET) assay, Human Calpain 9/NS1; settings: Column C; read-out: Human Calpain 9/NS1 IC50
T3 sequence (O14815 1-690): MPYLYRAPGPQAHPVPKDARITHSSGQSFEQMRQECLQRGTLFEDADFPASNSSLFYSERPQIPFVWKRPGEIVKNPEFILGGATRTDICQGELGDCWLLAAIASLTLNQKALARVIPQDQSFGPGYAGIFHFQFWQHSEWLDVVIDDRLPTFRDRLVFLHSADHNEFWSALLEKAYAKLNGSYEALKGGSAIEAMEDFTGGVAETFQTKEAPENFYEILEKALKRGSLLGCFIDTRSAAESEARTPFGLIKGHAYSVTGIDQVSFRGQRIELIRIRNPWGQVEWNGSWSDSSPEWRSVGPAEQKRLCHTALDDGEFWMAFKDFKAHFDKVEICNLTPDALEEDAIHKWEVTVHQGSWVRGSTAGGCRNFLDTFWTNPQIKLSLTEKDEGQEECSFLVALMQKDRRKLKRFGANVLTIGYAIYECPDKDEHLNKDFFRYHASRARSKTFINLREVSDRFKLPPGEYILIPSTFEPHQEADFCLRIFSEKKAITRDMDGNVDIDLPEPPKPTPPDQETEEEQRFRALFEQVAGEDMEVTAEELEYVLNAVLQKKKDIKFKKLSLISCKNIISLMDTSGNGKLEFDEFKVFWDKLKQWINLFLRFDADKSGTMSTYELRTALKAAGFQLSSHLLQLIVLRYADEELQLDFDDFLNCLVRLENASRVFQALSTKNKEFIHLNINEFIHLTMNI
T3 sequence (P04632 1-268 partner): T1 sequence (P04632 1-268 partner)
Description: as §1, §2

IC50 (Human Calpain 1/NS1) [µM]	IC50 (Human Calpain 2/NS1) [µM]	IC50 (Human Calpain 9/NS1) [µM]	Structure (SMILES)
< 3	< 3	< 3	NC(=O)C(=O)[C@H](Cc1ccccc1)NC(=O)c1scnc1-n1cc(-c2ccccc2)cn1 [Compound 39, (S)—N-(4-amino-3,4-dioxo-1-phenylbutan-2-yl)-4-(4-phenyl-1H-pyrazol-1-yl)thiazole-5-carboxamide]
< 3	< 3	< 3	NC(=O)C(=O)[C@H](Cc1ccccc1)NC(=O)c1scnc1-n1ncc2ccccc21 [Compound 40, (S)—N-(4-amino-3,4-dioxo-1-phenylbutan-2-yl)-4-(1H-indazol-1-yl)thiazole-5-carboxamide]
3 to 10	< 3	3 to 10	O=C(NC1CC1)C(=O)[C@H](Cc1ccccc1)NC(=O)c1cncn1-c1ccccn1 [Compound 41, (S)—N-(4-(cyclopropylamino)-3,4-dioxo-1-phenylbutan-2-yl)-1-(pyridin-2-yl)-1H-imidazole-5-carboxamide]
< 3	< 3	> 10	O=C(NC1CC1)C(=O)[C@H](Cc1ccccc1)NC(=O)c1cncn1-c1ccn(-c2ccccc2)n1 [Compound 42, (S)—N-(4-(cyclopropylamino)-3,4-dioxo-1-phenylbutan-2-yl)-1-(1-phenyl-1H-pyrazol-3-yl)-1H-imidazole-5-carboxamide]
< 3	< 3	< 3	O=C(NC1CC1)C(=O)[C@H](Cc1ccccc1)NC(=O)c1cncn1-c1nc2ccccc2s1 [Compound 43, (S)-1-(benzo[d]thiazol-2-yl)-N-(4-(cyclopropylamino)-3,4-dioxo-1-phenylbutan-2-yl)-1H-imidazole-5-carboxamide]
< 3	< 3	< 3	COc1ccc(C[C@H](NC(=O)c2c(C)noc2-c2ccccc2)C(=O)C(N)=O)cc1 [Compound 46, (S)—N-(4-amino-1-(4-methoxyphenyl)-3,4-dioxobutan-2-yl)-3-methyl-5-phenylisoxazole-4-carboxamide]
< 3	< 3	< 3	CC[C@H](NC(=O)c1c(C)noc1-c1ccccc1)C(=O)C(N)=O [Compound 47]
3 to 10	3 to 10	3 to 10	NC(=O)C(=O)[C@H](Cc1ccccc1)NC(=O)c1[nH]cnc1-c1ccccc1 [Compound 48, (S)—N-(4-amino-3,4-dioxo-1-phenylbutan-2-yl)-4-phenyl-1H-imidazole-5-carboxamide]
3 to 10	3 to 10	> 10	O=C(NC1CC1)C(=O)[C@H](Cc1ccccc1)NC(=O)c1cncn1-c1n[nH]c2ccccc12 [Compound 51, (S)—N-(4-(cyclopropylamino)-3,4-dioxo-1-phenylbutan-2-yl)-1-(1H-indazol-3-yl)-1H-imidazole-5-carboxamide]
< 3	< 3	< 3	NC(=O)C(=O)[C@H](Cc1ccccc1)NC(=O)c1cncn1-c1ncc(-c2ccccc2)s1 [Compound 52, (S)—N-(4-amino-3,4-dioxo-1-phenylbutan-2-yl)-1-(5-phenylthiazol-2-yl)-1H-imidazole-5-carboxamide]
< 3	< 3	3 to 10	O=C(NC1CC1)C(=O)[C@H](Cc1ccccc1)NC(=O)c1cncn1-c1ncc(-c2ccccc2)s1 [Compound 53, (S)—N-(4-(cyclopropylamino)-3,4-dioxo-1-phenylbutan-2-yl)-1-(5-phenylthiazol-2-yl)-1H-imidazole-5-carboxamide]
< 3	< 3	< 3	Cc1nc(C(=O)N[C@@H](Cc2ccccc2)C(=O)C(N)=O)c(-c2ccccc2)s1 [Compound 54, (S)—N-(4-amino-3,4-dioxo-1-phenylbutan-2-yl)-2-methyl-5-phenylthiazole-4-carboxamide]
< 3	< 3	< 3	Cc1noc(-c2ccccc2)c1C(=O)N[C@@H](CC(C)(C)C)C(=O)C(N)=O [Compound 56]
